Measured values reported in patent publication US7741124B2, “Detection procedures for fibrinogen and/or fibrinogen derivatives” (priority 2003, dated 2010).

Key:
[1] = test system: β2 fraction (fibrinogen) of plasma; assay: Electrophoresis of plasma that had been incubated with vancomycin; assay type: biochemical
Procedure: 950 μl P-Pool were incubated with 50 μl 0-200 mM (0-10 mM final conc.) vancomycin for 5 min (RT). Then electrophoreses of the samples and of the solubilized precipitate of 2.10. were performed and the total protein concentrations in the treated samples were determined.

[2] = molecular target: T1, fibrinogen in human plasma (Homo sapiens, UniProt P02671+P02675+P02679); assay: Inactivation of fibrinogen by vancomycin or chloramine-T (FIFTA read-out); assay type: biochemical
T1 construct: 200 μl of 256% of norm active fibrinogen in P-Pool; from tissue; host or cells: pooled citrated human patient plasma (P-Pool / Fbgen-Pool)
T1 sequence (P02671 20-629 isoform P02671-2 limits assumed): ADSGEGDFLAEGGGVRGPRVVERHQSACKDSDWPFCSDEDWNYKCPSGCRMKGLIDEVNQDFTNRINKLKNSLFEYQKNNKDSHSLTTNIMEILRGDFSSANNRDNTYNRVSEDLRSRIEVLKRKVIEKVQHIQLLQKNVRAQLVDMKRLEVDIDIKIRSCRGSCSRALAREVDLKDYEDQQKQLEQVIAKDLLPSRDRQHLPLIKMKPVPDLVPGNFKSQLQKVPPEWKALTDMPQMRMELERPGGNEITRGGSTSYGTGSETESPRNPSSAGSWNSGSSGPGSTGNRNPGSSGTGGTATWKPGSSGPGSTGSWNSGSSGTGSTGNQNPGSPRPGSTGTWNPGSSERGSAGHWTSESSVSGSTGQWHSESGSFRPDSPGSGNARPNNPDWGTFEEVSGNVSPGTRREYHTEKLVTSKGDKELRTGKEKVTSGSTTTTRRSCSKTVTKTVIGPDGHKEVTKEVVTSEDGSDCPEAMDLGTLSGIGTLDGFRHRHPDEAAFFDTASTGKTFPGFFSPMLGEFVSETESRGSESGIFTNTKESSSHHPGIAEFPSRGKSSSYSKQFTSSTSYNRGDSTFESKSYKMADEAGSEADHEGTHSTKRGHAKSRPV
T1 sequence (P02675 31-491): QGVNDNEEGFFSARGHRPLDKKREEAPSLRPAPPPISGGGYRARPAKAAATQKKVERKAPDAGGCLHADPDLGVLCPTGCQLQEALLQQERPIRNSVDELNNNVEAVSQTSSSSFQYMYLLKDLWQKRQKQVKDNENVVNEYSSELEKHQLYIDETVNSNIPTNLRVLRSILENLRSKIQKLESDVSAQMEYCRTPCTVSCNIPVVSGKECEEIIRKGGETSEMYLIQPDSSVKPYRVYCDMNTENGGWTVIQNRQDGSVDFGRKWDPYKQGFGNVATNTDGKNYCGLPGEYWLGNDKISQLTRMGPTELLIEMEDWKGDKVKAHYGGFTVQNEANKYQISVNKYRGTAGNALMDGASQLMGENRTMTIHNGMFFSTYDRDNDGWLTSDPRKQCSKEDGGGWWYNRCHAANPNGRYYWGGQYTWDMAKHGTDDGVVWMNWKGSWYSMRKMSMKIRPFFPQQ
T1 sequence (P02679 27-437 isoform P02679-2 limits assumed): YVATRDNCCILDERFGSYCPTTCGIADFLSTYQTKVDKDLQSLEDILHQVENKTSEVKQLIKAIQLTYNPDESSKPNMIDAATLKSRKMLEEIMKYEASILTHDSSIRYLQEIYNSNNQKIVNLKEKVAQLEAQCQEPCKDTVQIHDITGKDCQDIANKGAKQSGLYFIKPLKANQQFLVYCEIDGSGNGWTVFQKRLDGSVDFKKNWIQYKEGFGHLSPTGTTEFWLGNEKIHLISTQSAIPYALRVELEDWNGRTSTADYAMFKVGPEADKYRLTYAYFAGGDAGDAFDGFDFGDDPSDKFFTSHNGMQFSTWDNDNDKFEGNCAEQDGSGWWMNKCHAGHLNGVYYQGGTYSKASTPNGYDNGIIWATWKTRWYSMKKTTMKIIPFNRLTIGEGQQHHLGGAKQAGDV
Procedure: 200 μl of 256% of norm active fibrinogen in P-Pool were incubated with 25 μl 0-100 mM vancomycin or 0-100 mM chloramine-T® in aqua dest. for 15 min (37° C.). 50 μl samples of these reaction mixtures were withdrawn and incubated with 100 μl 200 mIU/ml thrombin, 400 μg/ml Polybrene®, 6% BSA-PBS. The results were standardized by simultaneous analysis of 144% of norm active fibrinogen in P-Pool.

CN[C@H](CC(C)C)C(=O)N[C@H]1C(=O)N[C@@H](CC(N)=O)C(=O)N[C@H]2C(=O)N[C@H]3C(=O)N[C@H](C(=O)N[C@H](C(=O)O)c4cc(O)cc(O)c4-c4cc3ccc4O)[C@H](O)c3ccc(c(Cl)c3)Oc3cc2cc(c3O[C@@H]2O[C@H](CO)[C@@H](O)[C@H](O)[C@H]2O[C@H]2C[C@](C)(N)[C@H](O)[C@H](C)O2)Oc2ccc(cc2Cl)[C@H]1O [vancomycin]
β2 fraction ([1]; 0.29 mM vancomycin): 10.6%
β2 fraction ([1]; 0.44 mM vancomycin): 10.4%
β2 fraction ([1]; 0.66 mM vancomycin): 8.0%
β2 fraction ([1]; 0.99 mM vancomycin): 6.4%
β2 fraction ([1]; 1.48 mM vancomycin): 5.2%
β2 fraction ([1]; 2.22 mM vancomycin): 5.5%
β2 fraction ([1]; 5 mM vancomycin): 0%
β2 fraction ([1]; 10 mM vancomycin): 0%
IC50 [2]: ~1000 µM
